Experimental data taken from patent US5721107A, “Antibodies to G protein coupled glutamate receptors” (priority 1995, dated 1998).
Where two headings read alike, the source gives them in different places.

Tests used:
[1] = tested on: rat G protein coupled glutamate receptor; experiment: Competition of tritiated glutamic acid binding to membrane preparations of transfected BHK cells; conditions: plus and minus quisqualate, 30 minutes, room temperature
Description: Transfected cell lines expressing GluG R were identified by the binding of ^3 H-glutamate to membrane preparations from transfected cells. Cell lines expressing low to moderate levels of GluG R are used to set up functional screening assays.
Clones of BHK 570 and BHK TK^- ts13 cells expressing the rat G protein coupled glutamate receptor cDNA were plated in two or three 150 mm maxi-plates culture dishes and were grown to confluency. The cells from each plate were scraped in 5 ml of PBS (phosphate buffered saline, Sigma Chemical Co., St. Louis, Mo.), which was pre-chilled to 4° C. The cells were removed to a chilled centrifuged tube, and the plates were each rinsed with 5 ml of chilled PBS and pooled with the cells. The chilled tubes were spun at 1,000 rpm for two minutes, and the supernatant was discarded. The cells were frozen at either -70° C. or on dry ice. In some cases, the cells were left overnight at -70° C. […] The filters were dried in a microwave oven and counted in a […].
Protein determinations were carried out using a Coomassie Blue-based assay from Pierce Chemical Company (Rockford, Ill.) under conditions set forth by the manufacturer. One hundred microliters of undiluted cell homogenate or BSA standard was added to 2 ml of reagent and the optical density was measured at 595 nm. […]

[2] = tested on: GluG R; experiment: Voltage-clamp response to quisqualate of oocytes injected with RNA from a subfractionated rat cerebellum cDNA library pool; type: cell-based; conditions: RNA from subfractionated pool of 14,000 colonies; approximately 100 ng RNA per oocyte; estimated from digital panel meter
Description: Plasmid DNA from plates 25 to 32 were cesium chloride banded and transcribed into RNA as described above along with the positive parent pool Z99-25-32. Oocytes were injected with the RNA and voltage clamp assays, carried out as described above, identified pools Z104-25 and Z111-32 as being weakly positive, Z106-27 and Z109-30 as intermediately positive, and Z108-29 and Z110-31 as the most positive. The pool resulting in Z110-31 was chosen for further subdivision.
To confirm the result, plasmid DNA from clone #45 was prepared, transcribed and assayed in oocytes as described above. […] FIG. 2 illustrates the data taken from voltage-clamp recordings at several stages in the subfractionation of the cerebellum library. […] The peak current was truncated by the chart recorder, but the actual peak current (estimated from a digital panel meter) was approximately 1300 nA.

[3] = tested on: glutamate G protein coupled receptor; experiment: Voltage-clamp assay of injected oocytes, inhibition of glutamic acid-evoked current by putative antagonist; type: cell-based, rat; conditions: antagonist 1 mM
Description: Voltage clamp assays were also carried out on injected oocytes to measure the inhibition by the putative glutamate G protein coupled receptor antagonist, 2-amino-3-phosphonopropionic acid (AP3).

[4] = target: T1, GluG R encoded by clone 45-A (Rattus norvegicus, UniProt P23385); type: cell-based; conditions: normalized to 100 μM L-glutamate
T1 construct: expressed in transfected cells; host or cells: Xenopus oocytes injected with in vitro transcribed RNA of clone 45-A (cDNA in pVEGT')
T1 sequence (P23385 33-1199): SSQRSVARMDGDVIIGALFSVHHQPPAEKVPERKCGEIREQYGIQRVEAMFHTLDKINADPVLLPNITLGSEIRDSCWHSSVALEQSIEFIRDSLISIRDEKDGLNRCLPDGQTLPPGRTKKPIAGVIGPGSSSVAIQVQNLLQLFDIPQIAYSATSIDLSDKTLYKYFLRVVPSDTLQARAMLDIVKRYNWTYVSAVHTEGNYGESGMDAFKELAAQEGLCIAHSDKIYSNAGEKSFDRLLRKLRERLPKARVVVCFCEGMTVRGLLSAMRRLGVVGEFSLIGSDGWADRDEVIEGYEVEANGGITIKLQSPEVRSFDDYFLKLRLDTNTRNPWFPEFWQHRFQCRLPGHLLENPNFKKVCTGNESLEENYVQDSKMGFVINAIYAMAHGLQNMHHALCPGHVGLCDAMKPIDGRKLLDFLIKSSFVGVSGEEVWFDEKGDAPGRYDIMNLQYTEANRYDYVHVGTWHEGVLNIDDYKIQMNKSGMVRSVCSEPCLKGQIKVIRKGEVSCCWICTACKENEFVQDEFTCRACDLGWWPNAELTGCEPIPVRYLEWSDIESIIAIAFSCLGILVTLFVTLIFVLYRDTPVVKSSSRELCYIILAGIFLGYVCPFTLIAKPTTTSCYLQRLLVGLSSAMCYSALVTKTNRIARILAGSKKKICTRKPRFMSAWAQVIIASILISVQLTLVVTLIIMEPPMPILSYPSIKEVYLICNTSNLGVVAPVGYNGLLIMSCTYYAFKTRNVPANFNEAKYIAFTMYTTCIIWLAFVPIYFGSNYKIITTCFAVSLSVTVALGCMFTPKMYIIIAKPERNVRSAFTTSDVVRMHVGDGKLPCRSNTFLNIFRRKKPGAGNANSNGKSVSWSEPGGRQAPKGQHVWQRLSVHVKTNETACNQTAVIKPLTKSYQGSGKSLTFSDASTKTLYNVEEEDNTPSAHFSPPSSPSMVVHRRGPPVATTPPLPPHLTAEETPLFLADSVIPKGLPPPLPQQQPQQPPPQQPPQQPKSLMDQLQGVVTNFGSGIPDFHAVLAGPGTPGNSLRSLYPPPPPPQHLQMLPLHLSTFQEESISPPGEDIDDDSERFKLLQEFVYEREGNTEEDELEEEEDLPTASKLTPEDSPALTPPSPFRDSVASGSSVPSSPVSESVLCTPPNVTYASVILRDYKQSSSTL

[5] = 100 μM, saturating concentration

## N[C@@H](Cn1oc(=O)[nH]c1=O)C(=O)O [Quisqualic acid, quisqualic acid]
[1]
  competitive binding to glutamate receptor expressed by transfected BHK cells: able to competitively bind the glutamate receptor
[2]
  peak current in response to quisqualate: approximately 1300 nA

## NC(CP(=O)(O)O)C(=O)O (racemic) [DL-AP3, 2-amino-3-phosphonopropionic acid]
[3]
  current evoked by 10 μM glutamic acid, reduced to % of the control: 59.3±7.3 % of the control

## N[C@@H](CC(=O)O)C(=O)O [aspartic acid]
[4]; 1 mM, saturating concentration
  response of oocytes to L-glutamic acid analog (effectiveness): ineffective

## C=C(C)[C@H]1CN[C@H](C(=O)O)[C@H]1CC(=O)O [kainic acid]
[4]; 1 mM, saturating concentration
  response of oocytes to L-glutamic acid analog (effectiveness): ineffective

## NC(CCP(=O)(O)O)C(=O)O (centres unmarked) [APB, 2-amino-4-phosphonobytyric acid]
[4]; [5]
  response of oocytes to L-glutamic acid analog (effectiveness): ineffective

## Cc1onc(O)c1CC(N)C(=O)O (stereo not drawn) [AMPA, α-amino-3-hydroxy-5-methyl-isoxazole-4-propionic acid]
[4]; [5]
  response of oocytes to L-glutamic acid analog (effectiveness): ineffective

## CN[C@H](CC(=O)O)C(=O)O [NMDA, N-methyl-D-aspartic acid]
[4]; 100 μM NMDA+10 μM glycine
  response of oocytes to L-glutamic acid analog (effectiveness): ineffective
